Columns and labels:
Assay type in all cases: in vivo
substantia nigra TH = experiment: Substantia nigra TH expression in MPTP Parkinson's disease model mouse (immunofluorescence); conditions: percentage of mean intensity of blank control group, gavage 21 days after MPTP modeling
Protocol: (§1) Neurotoxins can be used to establish PD animal models. Currently, 1-methyl-4-phenyl-1,2,3,6-tetrahydropyridine (MPTP) is the sole synthetic toxin which is recognized to induce PD symptoms in human and non-human primates and in mice. Using MPTP subacute modeling method, C57BL/6J male mice were intraperitoneally injected with MPTP 30 mg/kg, once a day for 5 consecutive days. The experiment animals were divided into blank control group, MPTP model group, and compound treatment group. For the […] compound treatment group, the compound was administrated by gavage for 21 consecutive days after the completion of modeling; for the MPTP model group, the normal saline was administrated by gavage for 21 consecutive days after the completion of modeling; and for the blank control group, the normal saline was first intraperitoneally injected for 5 days, and then administrated by gavage for 21 days.
The main cause of PD lies in the pathological changes in the substantia nigra-striatum projection system of the brain and the progressive degeneration and loss of dopaminergic neurons. Tyrosine hydroxylase (TH) is the first enzyme in the biosynthesis of catecholamine neurotransmitters, as well as the first rate-limiting enzyme in the dopamine synthesis. It plays an important role in the synthesis and metabolism of the neurotransmitter DA. The TH in PD animal models and patients has a wide range of abnormal changes, from the gene expression to the enzyme protein content and enzyme activity. The detection of the TH expression in the midbrain and substantia nigra of PD model mice can be used to evaluate the neuroprotective activity of the compound.
(§2) Half of experiment mice in each group were taken to separate the midbrain after perfusion and fixation. The tissue was trimmed, and the substantia nigra-striatum area was taken to prepare paraffin sections. The TH immunofluorescence staining was performed in the brain sections of mice in each group. […] The experiment included blank control group, MPTP model group, positive control group (caffeic acid phenethyl ester, CAPE), prototype control group (styryl sulfone compounds 3B, 3C, 3D, and 3G, whose structures are shown as above), and target compound group.

substantia nigra GFAP = experiment: Number of substantia nigra astrocytes with GFAP positive expression in MPTP Parkinson's disease model mouse (immunohistochemistry); conditions: for Positive cell number (astrocytes with GFAP positive expression): substantia nigra, MPTP Parkinson's disease model mouse, immunohistochemistry
Protocol: as §1
(§3) Neuron-glial cell network homeostasis disorder is an important factor for the selective and progressive death of substantia nigra dopaminergic neurons in PD. In the neurotoxic effect of MPTP, the excessive activations of microglial cells and astrocytes produce a variety of inflammatory cytokines and reactive oxygen species (ROS). These inflammatory factors and ROS amplify their respective toxicities and mediate malignant feedback loop, causing a cascade inflammation response and aggravating the pathological process of PD. CD11b and GFAP are the marker proteins for activations of microglial cells and astrocytes, respectively. Therefore, the effect of the target compounds on the activations of the microglial cells and astrocytes in the substantia nigra, hippocampus, and midbrain areas of MPTP-induced PD mice can be investigated, to explore the mechanism of the anti-PD effect of the target compounds by inhibiting the neuroinflammation.
(§4) Half of experiment mice in each group were taken to separate the midbrain after perfusion and fixation. The tissue was trimmed, and the substantia nigra area was taken to prepare paraffin sections. The GFAP immunohistochemical staining was performed for the statistics of the change in the number of astrocytes with GFAP positive expression. The experiment included blank control group, MPTP model group, positive control group (caffeic acid phenethyl ester, CAPE), prototype control group (styryl sulfone compounds 3B, 3C, 3D, and 3G, whose structures are shown as above), and target compound group.

hippocampus CD11b = experiment: Number of hippocampus microglial cells with CD11b positive expression in MPTP Parkinson's disease model mouse (immunohistochemistry); conditions: for Positive cell number (microglial cells with CD11b positive expression): hippocampus, MPTP Parkinson's disease model mouse, immunohistochemistry
Protocol: as §1, §3
as §4, with “hippocampus” for “substantia nigra”, “CD11b” for “GFAP”, “microglial cells” for “astrocytes”

substantia nigra pp38 = experiment: Substantia nigra pp38 protein expression in MPTP Parkinson's disease model mouse (immunofluorescence); conditions: percentage of mean intensity of blank control group, gavage 21 days after MPTP modeling
Protocol: as §1
The p38 mitogen-activated protein kinase (p38 MAPK) is expressed in both neurons and glial cells, and is the intersection point of neuron-glial cell network information regulations. The activation of p38 signaling pathway is an important initiator of neuronal degeneration, which continuously induces the apoptosis of dopaminergic neurons in multiple ways. It has become a research hotspot for the treatment of PD. Studies have shown that the protective mechanism of CAPE against the death of primary cultured cerebellar granule neurons induced by glutamate lies in inhibiting the activation of p38 phosphorylation and in turn inhibiting the activation of the caspase 3 apoptotic pathway to prevent neuronal apoptosis. Therefore, the MPTP-induced PD mouse model can be used to investigate the inhibitory effect of the target compounds on the activation of p38 phosphorylation on the overall animal level.
Half of experiment mice in each group were taken to separate the midbrain after perfusion and fixation. The tissue was trimmed, and the substantia nigra-striatum area was taken to prepare paraffin sections. The double immunofluorescence staining for TH and phosphorylated p38 was performed to observe the coexpression of TH and phosphorylated p38, for the statistics of the change in the phosphorylated p38 protein expression. The experiment included blank control group, MPTP model group, positive control group (caffeic acid phenethyl ester, CAPE), prototype control group (styryl sulfone compounds 3B, 3C, 3D, and 3G, whose structures are shown as above), and target compound group.

substantia nigra p-α-s = experiment: Substantia nigra p-α-s protein expression in MPTP Parkinson's disease model mouse (immunofluorescence); conditions: percentage of mean intensity of blank control group, gavage 21 days after MPTP modeling
Protocol: as §1
Alpha-synuclein is an “unfolded protein” in its natural state. It exists in a monomeric form, and participates in the physiological functions such as the release of neurotransmitters, the establishment of synaptic junctions, and the regulation of synaptic plasticity. Under pathological conditions, more than 90% of alpha-synuclein is phosphorylated at serine of position 129 and converted into phosphorylated alpha-synuclein (p-α-s), thereby forming Lewy bodies. The formation of Lewy bodies is one of the main pathological manifestations and pathological mechanisms for Parkinson's disease, and plays an important role in the formation and development of PD. The detection of the p-α-s expression in the midbrain and substantia nigra of PD model mice can evaluate the neuroprotective activity of the compound.
as §2, with “p-α-s” for “TH”

substantia nigra CD11b = experiment: Number of substantia nigra microglial cells with CD11b positive expression in MPTP Parkinson's disease model mouse (immunohistochemistry); conditions: for Positive cell number (microglial cells with CD11b positive expression): substantia nigra, MPTP Parkinson's disease model mouse, immunohistochemistry
Protocol: as §1, §3
as §4, with “CD11b” for “GFAP”, “microglial cells” for “astrocytes”

## O=S(=O)(/C=C/c1ccc(O)c(O)c1)Cc1ccc(Cl)cc1 [Compound 3D, (E)-4-{2-[(4-chlorophenyl)mesyl]ethenyl}benzene-1,2-diol, reference compound]
Substantia nigra TH
  Expression (Immunofluorescence intensity %): 87.38 ± 4.01%
Substantia nigra GFAP
  Positive cell number (astrocytes with GFAP positive expression): 110 ± 9
Hippocampus CD11b
  Positive cell number (microglial cells with CD11b positive expression): 18 ± 3
Substantia nigra pp38
  Expression (Immunofluorescence intensity %): 114.68 ± 21.42%
Substantia nigra p-α-s
  Expression (Immunofluorescence intensity %): 104.89 ± 7.56%
Substantia nigra CD11b
  Positive cell number (microglial cells with CD11b positive expression): 39 ± 4

## O=C(NC(=O)C(F)(F)F)Oc1ccc(/C=C/S(=O)(=O)C(F)(F)c2ccc(Oc3ccccn3)cc2)cc1OC(=O)C(F)(F)C(F)(F)F [Compound L1-4, (E)-5-{2-[(4-[pyridin-2-yl-oxy]phenyl)difluoromethylsulfonyl]ethenyl}-2-[N-(2,2,2-trifluoroacetyl)carbamoyloxy]phenyl-2,2,3,3,3-pentafluoropropionate]
Substantia nigra TH
  Expression (Immunofluorescence intensity %): 83.22 ± 5.98%
Substantia nigra GFAP
  Positive cell number (astrocytes with GFAP positive expression): 98 ± 4
Hippocampus CD11b
  Positive cell number (microglial cells with CD11b positive expression): 15 ± 2
Substantia nigra pp38
  Expression (Immunofluorescence intensity %): 62.93 ± 17.51%
Substantia nigra p-α-s
  Expression (Immunofluorescence intensity %): 58.37 ± 6.11%
Substantia nigra CD11b
  Positive cell number (microglial cells with CD11b positive expression): 35 ± 2

## COCCN(C)C(=O)Oc1cc(/C=C/S(=O)(=O)CCc2cccc(-c3ccc(C)o3)c2)ccc1OC(C)=O [Compound J1-4, (E)-2-[N-(2-methoxyethyl)-N-methylcarbamoyloxy]-4-{2-[3-(5-methylfur-2-yl)phenylethylsulfonyl]ethenyl}phenyl acetate]
Substantia nigra TH
  Expression (Immunofluorescence intensity %): 88.65 ± 5.41%
Substantia nigra GFAP
  Positive cell number (astrocytes with GFAP positive expression): 77 ± 4
Hippocampus CD11b
  Positive cell number (microglial cells with CD11b positive expression): 10 ± 2
Substantia nigra pp38
  Expression (Immunofluorescence intensity %): 100.62 ± 13.35%
Substantia nigra p-α-s
  Expression (Immunofluorescence intensity %): 116.95 ± 8.06%
Substantia nigra CD11b
  Positive cell number (microglial cells with CD11b positive expression): 24 ± 5

## Cc1ccc(N2CCN(C(=O)Oc3ccc(/C=C/S(=O)(=O)CCCC(c4ccc(OC(=O)CN(C)C)cc4)N(C)C)cc3OC(=O)N(C)c3ccccc3)CC2)cc1 (stereo not drawn) [Compound P1-1, (E)-4-{2-[4-(dimethylamino)-4-(4-(N,N-dimethylglycyloxy)phenyl)butylsulfonyl]ethenyl}-2-(N-methyl-N-phenylcarbamoyloxy)phenyl-4-(p-methylphenyl)piperazine-1-carboxylate]
Substantia nigra TH
  Expression (Immunofluorescence intensity %): 88.13 ± 3.43%
Substantia nigra GFAP
  Positive cell number (astrocytes with GFAP positive expression): 73 ± 6
Hippocampus CD11b
  Positive cell number (microglial cells with CD11b positive expression): 7 ± 2
Substantia nigra pp38
  Expression (Immunofluorescence intensity %): 99.55 ± 8.46%
Substantia nigra p-α-s
  Expression (Immunofluorescence intensity %): 182.99 ± 12.70%
Substantia nigra CD11b
  Positive cell number (microglial cells with CD11b positive expression): 26 ± 3

## CCOC(CS(=O)(=O)/C=C/c1ccc(OC(C)=O)c(OC(=O)Nc2ccc(NC)cc2)c1)C(OCC)c1ccc(OCc2ccccc2)c(O)c1 (stereo not drawn) [Compound H2-4, (E)-4-{2-[3-(4-benzyloxy-3-hydroxyphenyl)-2,3-diethoxypropyl]sulfonylethenyl}-2-[N-(4-methylaminophenyl)carbamoyloxy]phenyl acetate]
Substantia nigra TH
  Expression (Immunofluorescence intensity %): 95.20 ± 6.06%
Substantia nigra GFAP
  Positive cell number (astrocytes with GFAP positive expression): 93 ± 6
Hippocampus CD11b
  Positive cell number (microglial cells with CD11b positive expression): 7 ± 1
Substantia nigra pp38
  Expression (Immunofluorescence intensity %): 103.17 ± 12.58%
Substantia nigra p-α-s
  Expression (Immunofluorescence intensity %): 136.53 ± 8.94%
Substantia nigra CD11b
  Positive cell number (microglial cells with CD11b positive expression): 29 ± 4

## O=S(=O)(/C=C/c1ccc(O)c(O)c1)CCCc1ccccc1 [Compound 3C, (E)-4-{2-[(3-phenylpropyl)sulfonyl]ethenyl}benzene-1,2-diol, reference compound]
Substantia nigra TH
  Expression (Immunofluorescence intensity %): 74.63 ± 9.15%
Substantia nigra GFAP
  Positive cell number (astrocytes with GFAP positive expression): 121 ± 13
Hippocampus CD11b
  Positive cell number (microglial cells with CD11b positive expression): 20 ± 3
Substantia nigra pp38
  Expression (Immunofluorescence intensity %): 138.79 ± 27.44%
Substantia nigra p-α-s
  Expression (Immunofluorescence intensity %): 132.98 ± 7.78%
Substantia nigra CD11b
  Positive cell number (microglial cells with CD11b positive expression): 70 ± 6

## CCN(CC)C(=O)Oc1ccc(/C=C/S(=O)(=O)CCCc2ccccc2)cc1OC(=O)N(CC)CC [Compound C1-1, (E)-4-[2-(3-phenylpropylsulfonyl)ethenyl]-1,2-phenylenebis(diethylcarbamate)]
Substantia nigra TH
  Expression (Immunofluorescence intensity %): 96.58 ± 6.15%
Substantia nigra GFAP
  number of substantia nigra astrocytes with GFAP positive expression compared with the styryl sulfone prototype compounds: significantly lower
  Positive cell number (astrocytes with GFAP positive expression): 56 ± 4
Hippocampus CD11b
  number of hippocampus microglial cells with CD11b positive expression compared with the styryl sulfone prototype compounds: significantly lower
  Positive cell number (microglial cells with CD11b positive expression): 7 ± 2
Substantia nigra pp38
  Expression (Immunofluorescence intensity %): 108.71 ± 12.51%
Substantia nigra p-α-s
  Expression (Immunofluorescence intensity %): 123.59 ± 8.25%
Substantia nigra CD11b
  number of substantia nigra microglial cells with CD11b positive expression compared with the styryl sulfone prototype compounds: significantly lower
  Positive cell number (microglial cells with CD11b positive expression): 27 ± 4

## CNC(=O)Oc1ccc(/C=C/S(=O)(=O)CC(Cl)c2ccc(Cl)c([N+](=O)[O-])c2)cc1O (stereo not drawn) [Compound E2-2, (E)-4-{2-[2-chloro-2-(4-chloro-3-nitrophenyl)ethylsulfonyl]ethenyl}-2-hydroxyphenyl-N-methylcarbamate]
Substantia nigra TH
  Expression (Immunofluorescence intensity %): 93.12 ± 4.56%
Substantia nigra GFAP
  Positive cell number (astrocytes with GFAP positive expression): 102 ± 5
Hippocampus CD11b
  Positive cell number (microglial cells with CD11b positive expression): 15 ± 2
Substantia nigra pp38
  Expression (Immunofluorescence intensity %): 96.01 ± 10.37%
Substantia nigra p-α-s
  Expression (Immunofluorescence intensity %): 128.26 ± 11.62%
Substantia nigra CD11b
  Positive cell number (microglial cells with CD11b positive expression): 40 ± 5

— US12410124B2 (priority 2019, dated 2025)
